Laboratory results published in patent US12225917B2 (priority 2017, dated 2025).

Columns and labels:
Eimeria species = tested on: Eimeria species; parameters: species or system commercial meat chickens; settings: in vivo
[1] = Example 3: intestinal health scores based on Tierlynck et al. 2011 (dysbacteriosis, gross gut pathology); assay type: in vivo, commercial meat chickens; settings: reference feed: Salino, or Sal Zn Bac
Text: […] General gut quality (looking for enteritis) was also visually assessed at that point.
This is a scoring system aimed at quantifying the level of dysbacteriosis present in a group of birds, attributing scores for certain grossly visible abnormalities. Higher total scores (maximum 10) reflect a higher level of dysbacteriosis, although this may be compromised if coccidiosis is present. For our purposes, the intestinal scores simply reflect gross gut pathology.

[2] = in vivo

For CC[C@@H](C(=O)[C@@H](C)[C@@H](O)[C@H](C)[C@@H]1O[C@@H]([C@@H](CC)C(=O)O)CC[C@@H]1C)[C@H]1O[C@]2(C=C[C@@H](O)[C@]3(CC[C@@](C)([C@H]4CC[C@](O)(CC)[C@H](C)O4)O3)O2)[C@H](C)C[C@@H]1C [salinomycin, Salinomycin], the “Faecal oocyst count, Log10 Mean” value (Eimeria species) was 4.72^B Log10 (Oocyst/g faeces), the “Faecal oocyst count, Mean” value (Eimeria species) was 72,046 Oocyst/g faeces and the “Ballooning (total gut) score” value ([1]; Age 21 days) was 0.10. For the same compound, the “Contents lower intestine score” value ([1]; Age 21 days) was 0.45, the “Contents upper intestine score” value ([1]; Age 21 days) was 0.65 and the “Hyperaemia lower intestine score” value ([1]; Age 21 days) was 0.00. For the same compound, the “Hyperaemia upper intestine score” value ([1]; Age 21 days) was 0.15, the “Tonus lower intestine score” value ([1]; Age 21 days) was 0.50 and the “Tonus upper intestine score” value ([1]; Age 21 days) was 0.50. The “Total Intestine health score (maximum 10)” value ([1]; Age 21 days) was 3.55, the “Translucency lower intestine score” value ([1]; Age 21 days) was 0.85 and the “Translucency upper intestine score” value ([1]; Age 21 days) was 0.20^B. For the same compound, the “Undigested particles in rectum score” value ([1]; Age 21 days) was 0.15^B, the “Ballooning (total gut) score” value ([1]; Age 28 days) was 0.80 and the “Contents lower intestine score” value ([1]; Age 28 days) was 0.00. The “Contents upper intestine score” value ([1]; Age 28 days) was 1.00, the “Hyperaemia lower intestine score” value ([1]; Age 28 days) was 0.20 and the “Hyperaemia upper intestine score” value ([1]; Age 28 days) was 0.80. For the same compound, the “Tonus lower intestine score” value ([1]; Age 28 days) was 0.60, the “Tonus upper intestine score” value ([1]; Age 28 days) was 0.80 and the “Total Intestine health score (maximum 10)” value ([1]; Age 28 days) was 5.20. The “Translucency lower intestine score” value ([1]; Age 28 days) was 0.20, the “Translucency upper intestine score” value ([1]; Age 28 days) was 0.40 and the “Undigested particles in rectum score” value ([1]; Age 28 days) was 0.40. For the same compound, the “Feed per bird over period 0-14 days” value [2] was 497^AB g/bird, the “Feed per bird over period 0-21 days” value [2] was 1193^B g/bird and the “Feed per bird over period 0-28 days” value [2] was 2074 g/bird. The “Feed per bird over period 0-42 days” value [2] was 4298 g/bird, the “Mean Weight Gain over period 0-7 days” value [2] was 116 gm and the “Mean Weight Gain over period 8-14 days” value [2] was 330^BC gm. For the same compound, the “Mean Weight Gain over period 15-21 days” value [2] was 517^A gm, the “Mean Weight Gain over period 22-28 days” value [2] was 645 gm and the “Mean Weight Gain over period 29-42 days” value [2] was 1384 gm. For the same compound, the “Mean live weight at 0 days” value [2] was 41 gm, the “growth rates throughout the experiment” value [2] was “statistically similar to the control group” and the “mean live weight at 14 days” value [2] was 446^AB gm.
